# Experimental data published in PubChem BioAssay AID248 (DTP/NCI, 2004).
# Several values for one entry are separate records, joined by “and”; a condition that tells them apart may be missing. Equal entries are not always repeated. Inconclusive results and toxic doses are left out.
# Tested on: L1210 leukemia ip in BDF1 mice, survival T/C
# Experiment: NCI In Vivo Anticancer Drug Screen. Data for tumor model L1210 Leukemia (intraperitoneal) in B6D2F1 (BDF1) mice
# Settings: endpoint: mean survival time, higher = longer survival
# Procedure, shortened: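 Value reflects the ratio of survival in compound-treated mice to survival in vehicle-treated controls, with both groups carrying the same transplanted tumor.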
# [1] = dose: 100.0 mg/kg/injection, schedule: Q04DX003 (ip), vehicle: saline with Tween-80
# [2] = dose: 200.0 mg/kg/injection, schedule: Q04DX003 (ip), vehicle: saline with Tween-80
# [3] = dose: 400.0 mg/kg/injection, schedule: Q04DX003 (ip), vehicle: saline with Tween-80
# [4] = dose: 100.0 mg/kg/injection, schedule: Q01DX009 (ip), vehicle: Klucel (hydroxypropylcellulose) (HPC)
# [5] = dose: 100.0 mg/kg/injection, schedule: Q04DX002 (ip), vehicle: Klucel (hydroxypropylcellulose) (HPC)
# [6] = dose: 200.0 mg/kg/injection, schedule: Q04DX002 (ip), vehicle: Klucel (hydroxypropylcellulose) (HPC)
# [7] = dose: 100.0 mg/kg/injection, schedule: Q01DX001 (ip), vehicle: saline
# [8] = dose: 200.0 mg/kg/injection, schedule: Q01DX001 (ip), vehicle: saline
# [9] = dose: 100.0 mg/kg/injection, schedule: Q04DX003 (ip), vehicle: Klucel (hydroxypropylcellulose) (HPC)
# [10] = dose: 200.0 mg/kg/injection, schedule: Q04DX003 (ip), vehicle: Klucel (hydroxypropylcellulose) (HPC)
# [11] = dose: 400.0 mg/kg/injection, schedule: Q04DX003 (ip), vehicle: Klucel (hydroxypropylcellulose) (HPC)
# [12] = dose: 100.0 mg/kg/injection, schedule: Q01DX009 (ip), vehicle: saline
# [13] = dose: 200.0 mg/kg/injection, schedule: Q01DX009 (ip), vehicle: saline
# [14] = dose: 400.0 mg/kg/injection, schedule: Q01DX001 (ip), vehicle: saline
# [15] = dose: 25.0 mg/kg/injection, schedule: Q01DX009 (ip), vehicle: Klucel (hydroxypropylcellulose) (HPC)
# [16] = dose: 50.0 mg/kg/injection, schedule: Q01DX009 (ip), vehicle: Klucel (hydroxypropylcellulose) (HPC)
# [17] = dose: 50.0 mg/kg/injection, schedule: Q04DX003 (ip), vehicle: Klucel (hydroxypropylcellulose) (HPC)
smiles,measurement,setting,value
CC(=O)/C(C)=C/c1ccccc1,T/C,"dose: 100.0 mg/kg/injection, schedule: Q01DX001 (ip), vehicle: other",107 % of control
same,T/C,[1],100 % of control
same,T/C,"dose: 200.0 mg/kg/injection, schedule: Q01DX001 (ip), vehicle: other",96 % of control
same,T/C,[2],105 % of control
same,T/C,"dose: 400.0 mg/kg/injection, schedule: Q01DX001 (ip), vehicle: other",91 % of control
same,T/C,[3],100 % of control
CC(C)=CCC1(CC=C(C)C)C(=O)N(c2ccccc2)N(c2ccccc2)C1=O,T/C,"dose: 50.0 mg/kg/injection, schedule: Q04DX002 (ip), vehicle: Klucel (hydroxypropylcellulose) (HPC)",93 % of control
same,T/C,[4],93 % of control
same,T/C,[5],101 % of control
same,T/C,"dose: 200.0 mg/kg/injection, schedule: Q01DX009 (ip), vehicle: Klucel (hydroxypropylcellulose) (HPC)",98 % of control
same,T/C,[6],97 % of control
same,T/C,"dose: 400.0 mg/kg/injection, schedule: Q01DX009 (ip), vehicle: Klucel (hydroxypropylcellulose) (HPC)",90 % of control
CCCCOC(=O)C1OC1(CC)c1ccccc1 (stereo not given),T/C,"dose: 100.0 mg/kg/injection, schedule: Q04DX002 (ip), vehicle: saline with Tween-80",88 % of control
same,T/C,"dose: 200.0 mg/kg/injection, schedule: Q04DX002 (ip), vehicle: saline with Tween-80",97 % of control
same,T/C,"dose: 400.0 mg/kg/injection, schedule: Q04DX002 (ip), vehicle: saline with Tween-80",100 % of control
COc1ccc(OC)c2c(=O)cc(C(=O)O)[nH]c12,T/C,"dose: 50.0 mg/kg/injection, schedule: Q01DX001 (ip), vehicle: saline",98 % of control
same,T/C,[7],97 % of control
same,T/C,[8],95 % of control
COc1c(OC)c(C(C)C)c2c(c1C(=O)O)C(=O)OC2=O,T/C,"dose: 100.0 mg/kg/injection, schedule: Q01DX001 (ip), vehicle: Klucel (hydroxypropylcellulose) (HPC)",103 % of control
same,T/C,[9],96 % of control
same,T/C,"dose: 200.0 mg/kg/injection, schedule: Q01DX001 (ip), vehicle: Klucel (hydroxypropylcellulose) (HPC)",103 % of control
same,T/C,[10],88 % of control
same,T/C,"dose: 400.0 mg/kg/injection, schedule: Q01DX001 (ip), vehicle: Klucel (hydroxypropylcellulose) (HPC)",100 % of control
same,T/C,[11],89 % of control
C[N+](C)(C)CCCC[N+](C)(C)C,T/C,"dose: 50.0 mg/kg/injection, schedule: Q01DX009 (ip), vehicle: saline",110 % of control
same,T/C,[12],100 % of control and 106 % of control
same,T/C,"dose: 100.0 mg/kg/injection, schedule: Q04DX003 (ip), vehicle: saline",102 % of control
same,T/C,[13],98 % of control and 111 % of control
same,T/C,"dose: 200.0 mg/kg/injection, schedule: Q04DX003 (ip), vehicle: saline",100 % of control
CC1(C)OC2OC(COC(=O)c3ccccc3)C(OC(=O)Nc3ccccc3)C2O1 (stereo not given),T/C,[1],93 % of control
same,T/C,[2],98 % of control
same,T/C,[3],97 % of control
Cc1ccnc(NC(c2ccccc2)c2ccc3cccnc3c2O)c1 (stereo not given),T/C,[7],103 % of control
same,T/C,[8],95 % of control
same,T/C,[14],86 % of control
CN(Cc1cnc2nc(N)nc(N)c2n1)c1ccc(C(=O)NC(CCC(=O)OC(C)(C)C)C(=O)OC(C)(C)C)cc1 (stereo not given),T/C,[15],124 % of control
same,T/C,[16],88 % of control
same,T/C,[9],159 % of control
Nc1nc(=S)[nH]c(C(=O)O)c1Cc1ccccc1,T/C,"dose: 10.0 mg/kg/injection, schedule: Q04DX003 (ip), vehicle: Klucel (hydroxypropylcellulose) (HPC)",101 % of control
same,T/C,"dose: 20.0 mg/kg/injection, schedule: Q01DX009 (ip), vehicle: Klucel (hydroxypropylcellulose) (HPC)",92 % of control
same,T/C,"dose: 20.0 mg/kg/injection, schedule: Q04DX003 (ip), vehicle: Klucel (hydroxypropylcellulose) (HPC)",95 % of control
same,T/C,"dose: 40.0 mg/kg/injection, schedule: Q01DX009 (ip), vehicle: Klucel (hydroxypropylcellulose) (HPC)",104 % of control
same,T/C,"dose: 40.0 mg/kg/injection, schedule: Q04DX003 (ip), vehicle: Klucel (hydroxypropylcellulose) (HPC)",98 % of control
same,T/C,"dose: 80.0 mg/kg/injection, schedule: Q01DX009 (ip), vehicle: Klucel (hydroxypropylcellulose) (HPC)",98 % of control
CNC1C(OC2C(OC3C(O)C(O)C(N=C(N)N)C(O)C3N=C(N)N)OC(C)C2(O)C=O)OC(CO)C(O)C1O (stereo not given),T/C,[7],108 % of control
same,T/C,[8],106 % of control
same,T/C,[14],114 % of control
OCC1(CO)COC(c2ccccc2)OC1,T/C,[15],101 % of control
same,T/C,[16],101 % of control
same,T/C,[17],97 % of control
same,T/C,[4],108 % of control
same,T/C,[9],90 % of control
O=C1CSCC(=O)N1,T/C,[12],102 % of control
same,T/C,[13],97 % of control
same,T/C,"dose: 400.0 mg/kg/injection, schedule: Q01DX009 (ip), vehicle: saline",103 % of control
CCN=C(c1ccc(NC(=O)c2ccc(C(=O)Nc3ccc(C(=NCC)N(CC)C(=O)OCC)cc3)cc2)cc1)N(CC)C(=O)OCC,T/C,"dose: 2.0 mg/kg/injection, schedule: Q01DX015 (ip), vehicle: methylcellulose (MC)",101 % of control
same,T/C,"dose: 4.0 mg/kg/injection, schedule: Q01DX015 (ip), vehicle: methylcellulose (MC)",104 % of control
same,T/C,"dose: 8.0 mg/kg/injection, schedule: Q01DX015 (ip), vehicle: methylcellulose (MC)",97 % of control
same,T/C,"dose: 16.0 mg/kg/injection, schedule: Q01DX015 (ip), vehicle: methylcellulose (MC)",100 % of control
same,T/C,"dose: 31.0 mg/kg/injection, schedule: Q01DX015 (ip), vehicle: methylcellulose (MC)",102 % of control
same,T/C,"dose: 62.0 mg/kg/injection, schedule: Q01DX015 (ip), vehicle: methylcellulose (MC)",98 % of control
same,T/C,"dose: 125.0 mg/kg/injection, schedule: Q01DX015 (ip), vehicle: methylcellulose (MC)",96 % of control
same,T/C,"dose: 250.0 mg/kg/injection, schedule: Q01DX015 (ip), vehicle: methylcellulose (MC)",95 % of control
same,T/C,"dose: 375.0 mg/kg/injection, schedule: Q01DX015 (ip), vehicle: methylcellulose (MC)",91 % of control
same,T/C,"dose: 500.0 mg/kg/injection, schedule: Q01DX015 (ip), vehicle: methylcellulose (MC)",101 % of control
OC(CCN1CCCCC1)(c1ccccc1)C1CC2C=CC1C2 (stereo not given),T/C,"dose: 6.25 mg/kg/injection, schedule: Q01DX009 (ip), vehicle: Klucel (hydroxypropylcellulose) (HPC)",106 % of control
same,T/C,"dose: 12.5 mg/kg/injection, schedule: Q01DX009 (ip), vehicle: Klucel (hydroxypropylcellulose) (HPC)",105 % of control
same,T/C,[15],100 % of control
same,T/C,"dose: 25.0 mg/kg/injection, schedule: Q04DX003 (ip), vehicle: Klucel (hydroxypropylcellulose) (HPC)",106 % of control
same,T/C,[16],105 % of control
same,T/C,[17],97 % of control
same,T/C,[4],103 % of control
same,T/C,[9],95 % of control
CC(C)C1=CC23CCC4C(C)(C(N)=O)CCCC4(C)C2CC1C1C(=O)NC(=O)C13 (stereo not given),T/C,[9],97 % of control
same,T/C,[10],95 % of control
same,T/C,[11],92 % of control
CC1(C)c2ccccc2C(C)(O)c2ccccc21,T/C,"dose: 100.0 mg/kg/injection, schedule: Q01DX009 (ip), vehicle: saline with Tween-80",96 % of control
same,T/C,"dose: 100.0 mg/kg/injection, schedule: Q04DX003 (ip), vehicle: other",104 % of control
same,T/C,"dose: 200.0 mg/kg/injection, schedule: Q01DX009 (ip), vehicle: saline with Tween-80",93 % of control
same,T/C,"dose: 200.0 mg/kg/injection, schedule: Q04DX003 (ip), vehicle: other",94 % of control
same,T/C,"dose: 400.0 mg/kg/injection, schedule: Q01DX009 (ip), vehicle: saline with Tween-80",93 % of control
same,T/C,"dose: 400.0 mg/kg/injection, schedule: Q04DX003 (ip), vehicle: other",107 % of control
[N-]=[N+]=NCc1cnccn1,T/C,"dose: 12.5 mg/kg/injection, schedule: Q01DX009 (ip), vehicle: saline",103 % of control
same,T/C,"dose: 12.5 mg/kg/injection, schedule: Q04DX003 (ip), vehicle: saline",98 % of control
same,T/C,"dose: 25.0 mg/kg/injection, schedule: Q01DX009 (ip), vehicle: saline",101 % of control
same,T/C,"dose: 25.0 mg/kg/injection, schedule: Q04DX003 (ip), vehicle: saline",98 % of control
same,T/C,"dose: 50.0 mg/kg/injection, schedule: Q04DX003 (ip), vehicle: saline",98 % of control
Cc1ccc2nsnc2c1[N+](=O)[O-],T/C,[5],107 % of control
same,T/C,[6],118 % of control
same,T/C,"dose: 400.0 mg/kg/injection, schedule: Q04DX002 (ip), vehicle: Klucel (hydroxypropylcellulose) (HPC)",102 % of control
